Assay results: article PMC10814725, “In Vitro Anti-Inflammatory Study of Limonoids Isolated from Chisocheton Plants” (Current Issues in Molecular Biology, 2024)
Read-outs that look alike come from different tables or passages of the source.

Tests used:
[1] = test system: MCP-1; test: ELISA of MCP-1 production in LPS-stimulated THP-1 cells; assay type: cell-based, human; settings: for Effect on MCP-1 level: 10 µM, compared to LPS (+)-stimulated group, THP-1 cells; for IC50: Homo sapiens, LPS-stimulated (10 ng/mL) THP-1 cells, 1, 5, 10, 20 µM, 18 h; for MCP-1 SI (selectivity index, CC50/IC50): THP-1 CC50 / MCP-1 IC50
Procedure: The logarithmic growth phase of THP-1 cells was achieved by seeding in 96-well plates at a density of 5 × 10^4 cells/well and differentiated for 24 h in the presence of PMA (0.5 μM solution in medium). After 24 h of incubation, the culture medium was removed from the 96-well plate and the cells were washed with PBS. […] The cells were pretreated with 17 limonoids at the corresponding concentration for 1 h, followed by the addition of LPS (10 ng/mL) and then incubation at 37 °C for 18 h. Finally, 50 μL of each culture supernatant solution was taken to determine the concentrations of IL-6, MCP-1, and IL-1β using the corresponding commercially available human ELISA kits following the manufacturer’s instructions. The analyte concentration in the supernatant was measured in pg/mL, and the inhibition level was expressed as a fold change compared to the LPS (−) control group. To determine the IC50 value, the dose-response data were normalized to the LPS-stimulated-only group, and the percentage of inhibition was calculated using the following formula: % Inhibition=(Absorbance of LPS+ control−Absorbance of compound treatment with LPS)/(Absorbance of LPS+ control−Absorbance of LPS− control)×100
(§1) Furthermore, the % inhibition data were interpolated into linear equations to determine the IC50 values.

[2] = in vitro; assay type: cell-based; settings: mouse
[3] = test system: IL-1β; test: ELISA of IL-1β production in LPS-stimulated THP-1 cells; assay type: cell-based, human; settings: 10 µM, compared to LPS (+)-stimulated group
Procedure: The logarithmic growth phase of THP-1 cells was achieved by seeding in 96-well plates at a density of 5 × 10^4 cells/well and differentiated for 24 h in the presence of PMA (0.5 μM solution in medium). After 24 h of incubation, the culture medium was removed from the 96-well plate and the cells were washed with PBS. Fresh RPMI-1640 medium supplemented with 0.1% FBS and 1% Penicillin–Streptomycin was added to each well and incubated at 37 °C overnight. The cells were pretreated with 17 limonoids at the corresponding concentration for 1 h, followed by the addition of LPS (10 ng/mL) and then incubation at 37 °C for 18 h. Finally, 50 μL of each culture supernatant solution was taken to determine the concentrations of IL-6, MCP-1, and IL-1β using the corresponding commercially available human ELISA kits following the manufacturer’s instructions. The analyte concentration in the supernatant was measured in pg/mL, and the inhibition level was expressed as a fold change compared to the LPS (−) control group. To determine the IC50 value, the dose-response data were normalized to the LPS-stimulated-only group, and the percentage of inhibition was calculated using the following formula: % Inhibition=(Absorbance of LPS+ control−Absorbance of compound treatment with LPS)/(Absorbance of LPS+ control−Absorbance of LPS− control)×100
as §1

[4] = Cell viability by CCK-8, HEK-Blue hTLR4 cells; assay type: cell-based; settings: human
How it was run: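 CCK-8 read-out. HEK-Blue hTLR4 cells (2 × 10^4/well) serum-starved 24 h, then in high-glucose D-MEM with 0.1% FBS pretreated ±20 µM limonoids for 1 h before 10 ng/mL LPS; CCK-8 (10% v/v) added after 18 h and incubated 1 h at 37 °C. RAW264.7 viability measured likewise with CCK-8.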

[5] = test system: phosphorylated-p38 MAPK; test: Western blotting of phosphorylated-p38 MAPK in LPS-stimulated THP-1 cells; assay type: cell-based, human; settings: 10 µM, LPS 10 ng/mL, 18 h, compared to LPS (+) group
Procedure: THP-1 cells were seeded at a density of 1 × 10^6 cells/well in 24-well plates. The cells were then pretreated with a concentration of 10 µM of compounds 3, 5, 9, or 15 for 1 h. Subsequently, LPS (10 ng/mL) was added to the cells, which were incubated for 18 h. The protein concentrations were determined using a bicinchoninic acid (BCA) assay kit.
For Western blot analysis, proteins were separated by SDS-PAGE and transferred onto a polyvinylidene fluoride (PVDF) membrane. The membranes were blocked with 2.5% BSA in Tris-buffered saline-Tween (TBST) for 1 h at room temperature. After three washes with TBST, the membranes were incubated with a diluted primary antibody solution (anti-phosphorylated-p38 MAPK or anti-p38 MAPK) at a 1:1000 dilution for 1 h at room temperature. After three washes with TBS-T, the membranes were incubated with a secondary antibody conjugated to horseradish peroxidase (HRP; 1:4000 dilution) for 30 min at room temperature and subsequently detected by chemiluminescence. Finally, the bands were visualized and quantified using an ImageQuant 800 GxP system (Cytiva, MA, USA). The results were expressed as ratios relative to the reference protein β-actin.

[6] = Cell viability by CCK-8, THP-1 cells; assay type: cell-based; settings: human, PMA-differentiated THP-1 cells; for CC50 at 18 h: concentration causing 50% cytotoxicity against THP-1 cells
How it was run: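 THP-1 cells seeded at 5 × 10^4 cells/well in 96-well plates were differentiated with 0.5 μM PMA for 24 h, washed with PBS, and held overnight at 37 °C in RPMI-1640 containing 0.1% FBS and 1% penicillin–streptomycin. After 1 h compound pretreatment and 18 h further incubation, 10% (v/v) CCK-8 was added for 1 h. Absorbance was read at 405 nm, and background-corrected viability was expressed relative to untreated control cells.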

[7] = Viability Cell (%) HEK-Blue hTLR4 LPS-Induced (10 ng/mL)
[8] = Viability Cell (%) HEK-Blue hTLR4 Without LPS
[9] = LPS 10 ng/mL, read-out: Viability Cell (%) THP-1 LPS-Induced (10 ng/mL)
[10] = without LPS, read-out: Viability Cell (%) THP-1 Without LPS

Row | Compound | Effect on MCP-1 level [1] | IC50 [1] [µM] | MCP-1 SI (selectivity index, CC50/IC50) [1] | viability at 5 µM [2] [%] | viability at 10 µM [2] [%] | viability at 20 µM [2] [%] | Effect on IL-1β level [3] | viability at 18 h, 20 µM [4, 7] [%] | viability at 18 h, 20 µM [4, 8] [%] | Effect on p-p38 MAPK levels [5] | viability at 18 h, 10 µM [6, 9] [%] | viability at 18 h, 10 µM [6, 10] [%] | CC50 at 18 h [6] [µM]
1 | CC(=O)O[C@H]1[C@@H](OC(C)=O)[C@@]2(C)C3=CC[C@@H](c4ccoc4)[C@]3(C)CC[C@@H]2[C@@]2(C)C=CC(=O)C(C)(C)[C@H]12 [Compound 5, dysobinin] | significantly reduced | 0.87 | 16.76 | 83.6 ± 8.91 | 84.29 ± 0.28 | 3.19 ± 1.24 | significantly reduced | 23.6 ± 2.61 | 43.3 ± 6.02 | significantly suppressed | 52 ± 6.51 | 66.7 ± 6.02 | 14.6
2 | CC(=O)O[C@H]1[C@@H](O)[C@@]2(C)C3=CC[C@@H](c4ccoc4)[C@]3(C)CC[C@@H]2[C@@]2(C)C=CC(=O)C(C)(C)[C@H]12 [Compound 3, 6α-O-acetyl-7-deacetylnimocinol] | significantly reduced | 2.11 | 9.61 | 90.3 ± 5.24 | 91.4 ± 8.26 | 70.2 ± 2.29 | significantly reduced | 6.79 ± 6.22 | 20.7 ± 3.08 | significantly suppressed | > 99.9 | > 99.9 | 20.3
